Laboratory results reported in PubChem BioAssay (NCI).
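The compound was tested at five concentrations on cells cultured in 96-well plates, with a 48-hour exposure period. At the GI50, growth is halved. Definition used: TGI = concentration required for complete inhibition of growth.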

Columns and labels:
Test in all cases: NCI-60 cell line screen, 48 h
786-0 renal = test system: 786-0 renal
A498 renal = test system: A498 renal
A549 NSCLC = test system: A549 NSCLC
ACHN renal = test system: ACHN renal
BT-549 breast = test system: BT-549 breast
CAKI-1 renal = test system: CAKI-1 renal
CCRF-CEM leukemia = test system: CCRF-CEM leukemia
COLO 205 colon = test system: COLO 205 colon
DU-145 prostate = test system: DU-145 prostate
EKVX NSCLC = test system: EKVX NSCLC
HCC-2998 colon = test system: HCC-2998 colon
HCT-116 colon = test system: HCT-116 colon
HCT-15 colon = test system: HCT-15 colon
HL-60(TB) leukemia = test system: HL-60(TB) leukemia
HOP-62 NSCLC = test system: HOP-62 NSCLC
HOP-92 NSCLC = test system: HOP-92 NSCLC
HS 578T breast = test system: HS 578T breast
HT29 colon = test system: HT29 colon
IGROV1 ovarian = test system: IGROV1 ovarian
K-562 leukemia = test system: K-562 leukemia
KM12 colon = test system: KM12 colon
LOX IMVI melanoma = test system: LOX IMVI melanoma
M14 melanoma = test system: M14 melanoma
MALME-3M melanoma = test system: MALME-3M melanoma
MCF7 breast = test system: MCF7 breast
MDA-MB-231 breast = test system: MDA-MB-231 breast
MDA-MB-435 = test system: MDA-MB-435
MOLT-4 leukemia = test system: MOLT-4 leukemia
NCI-H226 lung = test system: NCI-H226 lung
NCI-H23 lung = test system: NCI-H23 lung
NCI-H460 lung = test system: NCI-H460 lung
NCI-H522 lung = test system: NCI-H522 lung
NCI/ADR-RES ovarian = test system: NCI/ADR-RES ovarian
OVCAR-3 ovarian = test system: OVCAR-3 ovarian
OVCAR-4 ovarian = test system: OVCAR-4 ovarian
OVCAR-5 ovarian = test system: OVCAR-5 ovarian
OVCAR-8 ovarian = test system: OVCAR-8 ovarian
PC-3 prostate = test system: PC-3 prostate
RPMI-8226 leukemia = test system: RPMI-8226 leukemia
RXF 393 renal = test system: RXF 393 renal
SF-268 CNS = test system: SF-268 CNS
SF-295 CNS = test system: SF-295 CNS
SF-539 CNS = test system: SF-539 CNS
SK-MEL-2 melanoma = test system: SK-MEL-2 melanoma
SK-MEL-28 melanoma = test system: SK-MEL-28 melanoma
SK-MEL-5 melanoma = test system: SK-MEL-5 melanoma
SK-OV-3 ovarian = test system: SK-OV-3 ovarian
SN12C renal = test system: SN12C renal
SNB-19 CNS = test system: SNB-19 CNS
SNB-75 CNS = test system: SNB-75 CNS
SW-620 colon = test system: SW-620 colon
T-47D breast = test system: T-47D breast
TK-10 renal = test system: TK-10 renal
U251 CNS = test system: U251 CNS
UACC-257 melanoma = test system: UACC-257 melanoma
UACC-62 melanoma = test system: UACC-62 melanoma
UO-31 renal = test system: UO-31 renal

CCN(CC)CC(C)Nc1ccc(C)c2sc3ccccc3c(=O)c12 (stereo not drawn)
GI50 (786-0 renal): 3.14 µM | TGI (786-0 renal): 11.2 µM | GI50 (A498 renal): 1.92 µM | TGI (A498 renal): 8.07 µM | GI50 (A549 NSCLC): 3.02 µM | TGI (A549 NSCLC): 16.8 µM | GI50 (ACHN renal): 3.88 µM | TGI (ACHN renal): 15.1 µM | GI50 (BT-549 breast): 7.14 µM | TGI (BT-549 breast): 21 µM | GI50 (CAKI-1 renal): 3.04 µM | TGI (CAKI-1 renal): 14.1 µM | GI50 (CCRF-CEM leukemia): 4.33 µM | TGI (CCRF-CEM leukemia): 18 µM | GI50 (COLO 205 colon): 1.68 µM | TGI (COLO 205 colon): 3.77 µM | GI50 (DU-145 prostate): 6.68 µM | TGI (DU-145 prostate): 19.1 µM | GI50 (EKVX NSCLC): 7.86 µM | TGI (EKVX NSCLC): 24.2 µM | GI50 (HCC-2998 colon): 3.19 µM | TGI (HCC-2998 colon): 15 µM | GI50 (HCT-116 colon): 3.07 µM | TGI (HCT-116 colon): 12.3 µM | GI50 (HCT-15 colon): 3.39 µM | TGI (HCT-15 colon): 14.7 µM | GI50 (HL-60(TB) leukemia): 1.62 µM | TGI (HL-60(TB) leukemia): 5.24 µM | GI50 (HOP-62 NSCLC): 2.63 µM | TGI (HOP-62 NSCLC): 8.67 µM | GI50 (HOP-92 NSCLC): 0.896 µM | TGI (HOP-92 NSCLC): 8.36 µM | GI50 (HS 578T breast): 2.29 µM | TGI (HS 578T breast): 9 µM | GI50 (HT29 colon): 3.29 µM | TGI (HT29 colon): 10.8 µM | GI50 (IGROV1 ovarian): 3.9 µM | TGI (IGROV1 ovarian): 17.1 µM | GI50 (K-562 leukemia): 0.216 µM | TGI (K-562 leukemia): 3.15 µM | GI50 (KM12 colon): 4.71 µM | TGI (KM12 colon): 16.9 µM | GI50 (LOX IMVI melanoma): 1.52 µM | TGI (LOX IMVI melanoma): 3.99 µM | GI50 (M14 melanoma): 1.62 µM | TGI (M14 melanoma): 3.2 µM | GI50 (MALME-3M melanoma): 2.45 µM | TGI (MALME-3M melanoma): 8.29 µM | GI50 (MCF7 breast): 2.1 µM | TGI (MCF7 breast): 6.96 µM | GI50 (MDA-MB-231 breast): 2.42 µM | TGI (MDA-MB-231 breast): 8.99 µM | GI50 (MDA-MB-435): 3.37 µM | TGI (MDA-MB-435): 11.9 µM | GI50 (MOLT-4 leukemia): 1.68 µM | TGI (MOLT-4 leukemia): 5.93 µM | GI50 (NCI-H226 lung): 4.21 µM | TGI (NCI-H226 lung): 18.8 µM | GI50 (NCI-H23 lung): 5.94 µM | TGI (NCI-H23 lung): 19.8 µM | GI50 (NCI-H460 lung): 2.05 µM | TGI (NCI-H460 lung): 8.25 µM | GI50 (NCI-H522 lung): 10.9 µM | TGI (NCI-H522 lung): 28.7 µM | GI50 (NCI/ADR-RES ovarian): 5.56 µM | TGI (NCI/ADR-RES ovarian): 18.7 µM | GI50 (OVCAR-3 ovarian): 6.33 µM | TGI (OVCAR-3 ovarian): 19.2 µM | GI50 (OVCAR-4 ovarian): 7.61 µM | TGI (OVCAR-4 ovarian): 20.5 µM | GI50 (OVCAR-5 ovarian): 2.95 µM | TGI (OVCAR-5 ovarian): 12.4 µM | GI50 (OVCAR-8 ovarian): 6.86 µM | TGI (OVCAR-8 ovarian): 25.3 µM | GI50 (PC-3 prostate): 3.6 µM | TGI (PC-3 prostate): 16.6 µM | GI50 (RPMI-8226 leukemia): 2.32 µM | TGI (RPMI-8226 leukemia): 6.81 µM | TGI (RXF 393 renal): 1.97 µM | GI50 (SF-268 CNS): 6.24 µM | TGI (SF-268 CNS): 18.4 µM | GI50 (SF-295 CNS): 2.66 µM | TGI (SF-295 CNS): 8.56 µM | GI50 (SF-539 CNS): 3.2 µM | TGI (SF-539 CNS): 12.7 µM | GI50 (SK-MEL-2 melanoma): 9.07 µM | TGI (SK-MEL-2 melanoma): 25.5 µM | GI50 (SK-MEL-28 melanoma): 1.73 µM | TGI (SK-MEL-28 melanoma): 3.41 µM | GI50 (SK-MEL-5 melanoma): 1.48 µM | TGI (SK-MEL-5 melanoma): 2.85 µM | GI50 (SK-OV-3 ovarian): 2.85 µM | TGI (SK-OV-3 ovarian): 12.3 µM | GI50 (SN12C renal): 6.77 µM | TGI (SN12C renal): 21 µM | GI50 (SNB-19 CNS): 6.44 µM | TGI (SNB-19 CNS): 19.5 µM | GI50 (SNB-75 CNS): 2.2 µM | TGI (SNB-75 CNS): 10.8 µM | GI50 (SW-620 colon): 3.33 µM | TGI (SW-620 colon): 13.7 µM | GI50 (T-47D breast): 3.28 µM | TGI (T-47D breast): 19.4 µM | GI50 (TK-10 renal): 4.83 µM | TGI (TK-10 renal): 17.6 µM | GI50 (U251 CNS): 3.43 µM | TGI (U251 CNS): 16.3 µM | GI50 (UACC-257 melanoma): 2.07 µM | TGI (UACC-257 melanoma): 4.82 µM | GI50 (UACC-62 melanoma): 1.82 µM | TGI (UACC-62 melanoma): 3.98 µM | GI50 (UO-31 renal): 1.77 µM | TGI (UO-31 renal): 7.69 µM
